Literature values as cited in patent US20020120149A1, “Substituted hydrazine derivatives” (priority 2000, published 2002).

Test system: NMDA receptor
Conditions: in vitro at concentrations at which clinical efficacy is seen

O=C(CCCN1CCC(O)(c2ccc(Cl)cc2)CC1)c1ccc(F)cc1 [haloperidol]
increase in NMDA receptor activity: ~40%
